Like-named read-outs stand apart in the source and are kept apart here. Numbered stars: 1 amine (or outer) side, 2 acyl side, 3 side chain; on linkers, the order of the positions; unused ones are H or OH. Bridge positions count the residues as written; N and C are the ends. Square brackets hold non-standard residues; d marks the D form. Peptide text beside a SMILES is read from it. * marks the point of attachment. Lys(Me,(CH2)4NMe(CH2)5CO) = CN(CCCCCC(=O)[*:3])CCCCN(C)CCCC[C@H](N[*:1])C(=O)[*:2]; Lys(Me,(CH2)4NMe(CH2)4CO) = CN(CCCCC(=O)[*:3])CCCCN(C)CCCC[C@H](N[*:1])C(=O)[*:2]; Trp(7-Me) = Cc1cccc2c(C[C@H](N)C(=O)O)c[nH]c12; Trp(1-Me) = Cn1cc(C[C@H](N)C(=O)O)c2ccccc21; αMeLys(Me2) = CN(C)CCCC[C@](C)(N)C(=O)O; 2Nal = N[C@@H](Cc1ccc2ccccc2c1)C(=O)O; 3Pal = N[C@@H](Cc1cccnc1)C(=O)O; Aun = NCCCCCCCCCCC(=O)O; Thp = NC1(C(=O)O)CCOCC1; Me2NCH2CH2 = CN(C)CC*; Aib = CC(C)(N)C(=O)O; Sar = CNCC(=O)O
Legend:
[1] = Solubility of peptide compounds in buffer formulations (Table 5); assay type: physicochemical; details: target 1 mg/ml
Description: Prior to the solubility measurement of a peptide batch, its purity was determined through UHPLC/MS method A.
For solubility testing the target concentration was 1 mg pure compound/ml. Therefore, solutions from solid samples were prepared in a buffer system at a concentration of 1 mg/mL compound. The solid samples were obtained by drying down aliquots of a freshly prepared dimethyl sulfoxide stock solution using a THERMO SPEEDVAC vacuum centrifuge. The dry down time was 3 hours.
The following buffer systems were applied: • Solubility buffer system A) 50 mM HCl pH 1.2 • Solubility buffer system B) 50 mM phosphate buffer pH 6.5 • Solubility buffer system C) 50 mM phosphate buffer pH 7.4 • UHPLC-UV was performed using analytical method A after 2 hours of gentle agitation from the filtered (0.45 μm filter plates) solutions, which were obtained by 10 mins of centrifugation forced filtration at 1500 RCF (relative centrifugal acceleration).
The solubility was determined by the comparison of the UV peak area of 2 μL-injections of a buffered sample diluted 1:10 with a standard curve of a dimethyl sulfoxide reference sample of known concentration. The different extinction coefficients were taken into account for the calculation.

[2] = Protease stability in simulated intestinal fluids (FaSSIF) (Table 7); assay type: in vitro ADME; details: fassif with pancreatin, 37° C.; for remaining at 1 h, 1 µM: 60 min, read-out: Remaining percentage of peptide compound, FaSSIF 60 (min); for remaining at 2 h, 1 µM: 120 min, read-out: Remaining percentage of peptide compound, FaSSIF 120 (min); for remaining at 4 h, 1 µM: 240 min, read-out: Remaining percentage of peptide compound, FaSSIF 240 (min)
Description: (§1) Studies were carried out in simulated intestinal fluid (SIF) and simulated gastric fluid (SGF) to evaluate gastric stability of the peptide compounds disclosed herein.
Similarly, the term “Pancreatin-SIF” refers to a solution of simulated intestinal fluid containing pancreatin whereas “SIF-media” refers to a solution of simulated intestinal fluid without pancreatin. Pancreatin-SIF was prepared by dissolving 1 mg Pancreatin (MP Biomedicals) in 10 mL SIF media concentrate (PROSENSE).
(§2) Peptide compounds were first dissolved at 1 mM stock concentration in 0.01 HCl (+/−10% of DMSO) and were than diluted further with water to a stock concentration of 20 μM. Final peptide concentration in the incubation was 1 μM.
(§3) To 76 μL of the Pepsin-SGF buffer, 4 μL of the 20 μM peptide stock solution was added and incubated at 37° C. At each timepoint (0, 60, 120 and 240 minutes) the reaction was quenched with addition of 80 μL Ethanol (0.1% HCOOH). The samples were centrifuged for 20 minutes and an aliquot of the supernatant 100 μL were transferred to a LoBind-MTP plate and analyzed by LCMS/MS. The peak area response was calculated at each time point for each test compound. As internal reference, the peak area response of the same test compound at T0 was calculated. The percentage remaining at each timepoint was calculated based on the peak area response ratio of the test compound at T0. Time 0 was set to 100%, and all later timepoints were calculated relative to time 0.

[3] = Protease stability in simulated gastric fluids (FaSSGF) (Table 7); assay type: in vitro ADME; details: fassgf with pepsin, 60 min, 37° C., read-out: Remaining percentage of peptide compound, FaSSGF 60 (min)
Description: as §1
For clarification, the term “Pepsin-SGF” refers to a solution of simulated gastric fluid containing pepsin whereas “SGF media” refers to a solution of simulated gastric fluid without pepsin. Pepsin-SGF was prepared by dissolving 320 mg Pepsin (Merck Millipore) in 100 mL SGF media concentrate (PROSENSE).
as §2
as §3, with “(0,1%” for “(0.1%”
as §3

[4] = tested on: IL-23 induced STAT3 signaling (IL-23 receptor) in HEK-Blue IL-23 cells; assay: Inhibition of IL-23 induced STAT3 signaling in HEK-Blue IL-23 cells, SEAP reporter (Table 9); assay type: cell-based; details: human IL23 0.25 ng/ml, overnight, read-out: Inhibition of IL-23 induced pSTAT3 (IC50 nM)
Source text: HEK-Blue™ IL-23 cells (INVIVOGEN) are designed for the detection of bioactive human (hIL-23) and murine IL-23 (mIL-23) by monitoring the activation of the STAT3 pathway. Binding of IL-23 to its receptor on the surface of HEK-Blue™ IL-23 cells triggers a signaling cascade leading to the activation of STAT3 and the subsequent production of secreted embryonic alkaline phosphatase (SEAP). This can be readily assessed using QUANTI-Blue™ Solution, a SEAP detection reagent.
HEK-Blue™ IL-23 cells were cultured as described by INVIVOGEN.
On the first day of assay 10 μL of the HEK-BLUE IL23 cell suspension (final concentration: 10,000 cells/well) and 10 μl of serially diluted peptides solutions were dispensed into a 384-well assay plate. After pre-incubation of the reaction mixtures at 37° C./5% CO2/95% humidity for 60 minutes, 10 μl of the humanIL23 cytokine (final concentration: 0.25 ng/ml) was added to each well for the STAT3 signaling activation. The plate was incubated overnight at 37° C./5% CO2/95% humidity.
On the second day 20 μl per well of QUANTI-BLUE detection solution (prepared according to the manufacture instruction) was dispensed into a new 384-well plate and followed by the transfer of 5 μl supernatant of the overnight incubated cell/sample mixtures. After incubation of 45 min at room temperature signals were measured with PHERASTAR (BMG) at OD 620-655 nm.
Dose response data were fitted with XLfit.

[5] = Buffer pH 1.1 (head; method: 50 mM HCl pH 1.2), 2 h agitation, read-out: Solubility, Buffer pH 1.1
[6] = aqueous buffer, 50 mM phosphate buffer pH 6.5, 2 h agitation, read-out: Solubility, Buffer pH 6.5
[7] = aqueous buffer, 50 mM phosphate buffer pH 7.4, 2 h agitation, read-out: Solubility, Buffer pH 7.4

solubility at 2 h [1, 5] [µg/mL]	solubility at 2 h [1, 6] [µg/mL]	solubility at 2 h [1, 7] [µg/mL]	remaining at 1 h, 1 µM [2] [%]	remaining at 2 h, 1 µM [2] [%]	remaining at 4 h, 1 µM [2] [%]	remaining at 1 h, 1 µM [3] [%]	SMILES	IC50 [4] [nM]
≥ 1200	≥ 1150	≥ 1170	97	91	91	98	CC(=O)NCCCC[C@@H]1NC(=O)[C@H](Cc2c[nH]c3c(C)cccc23)NC(=O)CCCCN(C)CCCCN(C)CCCC[C@@H](C(=O)N[C@@H](CC(N)=O)C(=O)N[C@@H](Cc2cccnc2)C(=O)N(C)CC(N)=O)NC(=O)[C@](C)(CCCCN(C)C)NC(=O)[C@H](Cc2ccc3ccccc3c2)NC(=O)[C@H](Cc2ccc(OCCN(C)C)cc2)NC(=O)C2(CCOCC2)NC1=O [compound 47] ([Trp(7-Me)]K(Ac)[Thp]Y(Me2NCH2CH2)[2Nal][αMeLys(Me2)][Lys(Me,(CH2)4NMe(CH2)4CO)]N[3Pal][Sar]-NH2; lactam N-7)	1.2
≥ 1150	≥ 1170	≥ 1010	97	100	101	91	CC(=O)NCCCC[C@@H]1NC(=O)[C@H](Cc2c[nH]c3c(C)cccc23)NC(=O)CCCCCCCCCCNC(=O)CC[C@@H](C(=O)N[C@@H](CC(N)=O)C(=O)N[C@@H](Cc2cccnc2)C(=O)N(C)CC(N)=O)NC(=O)[C@](C)(CCCCN(C)C)NC(=O)[C@H](Cc2ccc3ccccc3c2)NC(=O)[C@H](Cc2ccc(OCCN(C)C)cc2)NC(=O)C2(CCOCC2)NC1=O [compound 21] ([Aun][Trp(7-Me)]K(Ac)[Thp]Y(Me2NCH2CH2)[2Nal][αMeLys(Me2)]EN[3Pal][Sar]-NH2; lactam N-8)	0.27
≥ 1000	≥ 1120	≥ 950	97	94	94	100	CN(C)CCOc1ccc(C[C@@H]2NC(=O)C3(CCOCC3)NC(=O)[C@H](CCC(N)=O)NC(=O)[C@H](Cc3cn(C)c4ccccc34)NC(=O)CCCCCN(C)CCCCN(C)CCCC[C@@H](C(=O)N[C@@H](CC(N)=O)C(=O)N[C@@H](Cc3cccnc3)C(=O)N(C)CC(N)=O)NC(=O)C(C)(C)NC(=O)[C@H](Cc3ccc4ccccc4c3)NC2=O)cc1 [compound 33] ([Trp(1-Me)]Q[Thp]Y(Me2NCH2CH2)[2Nal][Aib][Lys(Me,(CH2)4NMe(CH2)5CO)]N[3Pal][Sar]-NH2; lactam N-7)	0.8
≥ 980	≥ 920	≥ 960	97	94	94	100	CC(=O)NCCCC[C@@H]1NC(=O)[C@H](Cc2c[nH]c3c(C)cccc23)NC(=O)CCCCCN(C)CCCCN(C)CCCC[C@@H](C(=O)NCC(=O)N[C@@H](Cc2cccnc2)C(=O)N(C)CC(N)=O)NC(=O)C(C)(C)NC(=O)[C@H](Cc2ccc3ccccc3c2)NC(=O)[C@H](Cc2ccc(OCCN(C)C)cc2)NC(=O)C2(CCOCC2)NC1=O [compound 27] ([Trp(7-Me)]K(Ac)[Thp]Y(Me2NCH2CH2)[2Nal][Aib][Lys(Me,(CH2)4NMe(CH2)5CO)]G[3Pal][Sar]-NH2; lactam N-7)	3.12
≥ 1000	≥ 1010	≥ 890	92	88	87	95	Cc1cccc2c(C[C@@H]3NC(=O)CCCCCN(C)CCCCN(C)CCCC[C@@H](C(=O)NCC(=O)N[C@@H](Cc4cccnc4)C(=O)N(C)CC(N)=O)NC(=O)C(C)(C)NC(=O)[C@H](Cc4ccc5ccccc5c4)NC(=O)[C@H](Cc4ccc(OCCN(C)C)cc4)NC(=O)C4(CCOCC4)NC(=O)[C@H](CCC(N)=O)NC3=O)c[nH]c12 [compound 26] ([Trp(7-Me)]Q[Thp]Y(Me2NCH2CH2)[2Nal][Aib][Lys(Me,(CH2)4NMe(CH2)5CO)]G[3Pal][Sar]-NH2; lactam N-7)	2.32
≥ 1010	≥ 1030	≥ 1040	59	42	23	100	CC(=O)NCCCC[C@@H]1NC(=O)[C@H](Cc2c[nH]c3ccccc23)NC(=O)CCCCN(C)CCCCN(C)CCCC[C@@H](C(=O)N[C@@H](CO)C(=O)N[C@@H](Cc2cccnc2)C(=O)N(C)CC(N)=O)NC(=O)C(C)(C)NC(=O)[C@H](Cc2ccc3ccccc3c2)NC(=O)[C@H](Cc2ccc(OCCN(C)C)cc2)NC(=O)C2(CCOCC2)NC1=O [compound 42] (WK(Ac)[Thp]Y(Me2NCH2CH2)[2Nal][Aib][Lys(Me,(CH2)4NMe(CH2)4CO)]S[3Pal][Sar]-NH2; lactam N-7)	4.37

— US20260297129A1, “PEPTIDES AS SELECTIVE IL-23 RECEPTOR INHIBITORS” (SANOFI, priority 2023, published 2026)
